Experimental data as given in PubChem BioAssay AID1508604 (National Center for Advancing Translational Sciences (NCATS), 2020).

Test system: CD-1 mouse liver cytosol, LC/MS substrate depletion half-life
Assay: NCATS Mouse Liver Cytosol Stability Profiling
Conditions: at 1 µM; higher = more stable
Experimental: Assay submitter (PI): Pranav Shah Ph.D. NIH Center for Advancing Translational Sciences 9800 Medical Center Dr, Rockville MD, 20850 Over the last few decades, chemists have become skilled at designing compounds that avoid cytochrome P (CYP) 450 mediated metabolism. Typical screening assays are performed in liver microsomal fractions and it is possible to overlook the contribution of cytosolic enzymes until much later in the drug discovery process. Few data exist on cytosolic enzyme-mediated metabolism and no reliable tools are available to chemists to help design away from such liabilities. In this study, we screened 1450 compounds for liver cytosol-mediated metabolic stability and extracted transformation rules that might help medicinal chemists in optimizing compounds with these liabilities. […] Matched molecular pairs analysis was performed in conjunction with qualitative-structure activity relationship modeling to identify chemical structure transformations affecting cytosolic stability. The transformation rules were prospectively validated on the test set. In addition, selected rules were validated on a diverse chemical library and the resulting pairs were experimentally tested to confirm whether the identified transformations could be generalized. The validation results, comprising nearly 250 library compounds and corresponding half-life data, are made publicly available. The datasets were also used to generate in silico classification models, based on different molecular descriptors and machine learning methods, to predict cytosol-mediated liabilities. To the best of our knowledge, this is the first systematic in silico effort to address cytosolic enzyme-mediated liabilities (Shah 2020). Reference: Shah, P., Siramshetty, V.B., Zakharov, A.V. et al. Predicting liver cytosol stability of small molecules. J Cheminform 12, 21 (2020). https://doi.org/10.1186/s13321-020-00426-7
Compounds are classified as unstable (t 1/2 < 30 min) or stable (t 1/2 > 30 min). […] Reference: 1. Shah, P. et al. An Automated High-Throughput Metabolic Stability Assay Using an Integrated High-Resolution Accurate Mass Method and Automated Data Analysis Software. Drug Metab Dispos 44, 1653-1661 (2016). PMID 27417180

| SMILES | half-life |
| --- | --- |
| O=C(Nc1cccc(-c2nnc3n2CCCC3)c1)c1ccn[nH]1 | > 2 h |
| CCOc1cc(=O)n2c(c1C(=O)Nc1ccc(Cl)c(F)c1)CCCC2 | 1.34 h |
| O=C1OCC2(CCN(Cc3ccc(Cl)cc3)C2)N1CCN1CCOCC1 (centres undefined) | > 2 h |
| CN1c2cc(C(=O)Nc3ccc(Cl)c(F)c3)ccc2C(=O)N2CCCCCC21 (centres undefined) | 0.383 h |
| CN(C)c1nc2c(c(=O)[nH]1)CCN(Cc1ccc(Cl)cc1)CC2 | 1.91 h |
| COCC1CN(C(C)=O)CC12CCN(Cc1ccc(Cl)c(F)c1)CC2 (centres undefined) | 1.36 h |
| CCN1c2cc(C(=O)Nc3ccc(Cl)cc3)ccc2C(=O)N2CCCCCC21 (centres undefined) | 0.935 h |
| CN1C(=O)CO[C@H]2CN(Cc3ccc(Cl)cc3)C[C@H]21 | 1.94 h |
| O=C1[C@H]2CN(Cc3ccc(Cl)cc3)C[C@H]2C(=O)N1CCc1ccccc1 | 0.792 h |
| O=C1OCC2(CCN(Cc3ccn[nH]3)C2)N1CCN1CCOCC1 (centres undefined) | > 2 h |
| CCN1c2cc(C(=O)Nc3ccc(Cl)c(F)c3)ccc2C(=O)N2CCCCCC21 (centres undefined) | 0.904 h |
| O=C(Nc1cccc(-c2nnc3n2CCCC3)c1)c1ccc(Cl)cc1 | 0.941 h |
| O=C1NC2(CCN(C(=O)c3ccc(Cl)c(F)c3)CC2)CC1c1ccccc1 (centres undefined) | 1.43 h |
| CCOc1cc(=O)n2c(c1C(=O)Nc1ccc(Cl)cc1)CCCC2 | 1.57 h |
| O=C1NC2(CCN(C(=O)c3ccc(Cl)cc3)CC2)CC1c1ccccc1 (centres undefined) | > 2 h |
| O=C1[C@H]2CN(Cc3ccc(Cl)c(F)c3)C[C@H]2C(=O)N1CCc1ccccc1 | 0.621 h |
| CCN1c2cc(C(=O)Nc3ccc(Cl)cc3)ccc2C(=O)N2CCCCC21 (centres undefined) | 0.429 h |
| Cc1ccc2nc(CO[C@H]3CN(Cc4ccc(Cl)cc4)C[C@H]3F)[nH]c2c1 | > 2 h |
| O=C1[C@H]2CN(Cc3ccc(Cl)c(F)c3)C[C@H]2C(=O)N1Cc1ccc2c(c1)OCO2 | 0.921 h |
| CN(C)c1nc2c(c(=O)[nH]1)CCN(Cc1ccc(Cl)c(F)c1)CC2 | > 2 h |
| CN1CCN(c2nc3c(c(=O)[nH]2)CCN(Cc2ccc(Cl)c(F)c2)CC3)CC1 | > 2 h |
| OCC1(CN2CCCC2)CCN(Cc2ccc(Cl)c(F)c2)CC1 | 1.21 h |
| Cn1c([C@H]2CCN(Cc3ccc(Cl)cc3)C2)nc2ccccc21 | > 2 h |
| OCC1(CN2CCCC2)CCN(Cc2ccc(Cl)cc2)CC1 | 0.908 h |
| O=c1[nH]c(N2CCOCC2)nc2c1CCN(Cc1ccc(Cl)c(F)c1)CC2 | 1.54 h |

| SMILES | half-life |
| --- | --- |
| COc1cccc(C(=O)NCC2CCCN(Cc3ccn[nH]3)C2)c1OC (centres undefined) | > 2 h |
| COc1ccc(CN2C[C@H]3CN(Cc4ccc(Cl)cc4)CCN3C2=O)cc1 | 1.37 h |
| COCC1CN(Cc2ccc(Cl)c(F)c2)CC12CCNCC2 (centres undefined) | > 2 h |
| O=C(Nc1ccc(-c2nnc3n2CCCC3)cc1)c1ccc(Cl)cc1 | 1.95 h |
| O=c1[nH]c(N2CCOCC2)nc2c1CCN(Cc1ccc(Cl)cc1)CC2 | > 2 h |
| COc1cc(=O)n2c(c1C(=O)Nc1ccc(Cl)c(F)c1)CCCC2 | 1.47 h |
| O=C1[C@H]2CN(Cc3ccc(Cl)cc3)C[C@H]2C(=O)N1Cc1ccc2c(c1)OCO2 | 1.11 h |
| Cc1cccc(-c2noc([C@@H]3C[C@@H](O)CN3Cc3ccc(Cl)cc3)n2)c1 | 0.394 h |
| COCC1CN(C(C)=O)CC12CCN(Cc1ccc(Cl)cc1)CC2 (centres undefined) | > 2 h |
| CN(C1CCOCC1)C1CCN(C(=O)c2ccn[nH]2)CC1 | > 2 h |
| COCC1CN(Cc2ccc(Cl)cc2)CC12CCNCC2 (centres undefined) | > 2 h |
| CN1CCN(c2nc3c(c(=O)[nH]2)CCN(Cc2ccc(Cl)cc2)CC3)CC1 | > 2 h |
| CN(C1CCOCC1)C1CCN(C(=O)c2ccc(Cl)cc2)CC1 | > 2 h |
| Cc1ccc(-c2ccc3nnc(CNC(=O)c4ccc(Cl)cc4)n3n2)cc1 | > 2 h |
| O=C(Nc1ccc(-c2nnc3n2CCCC3)cc1)c1ccn[nH]1 | > 2 h |
| CN1c2cc(C(=O)Nc3ccc(Cl)cc3)ccc2C(=O)N2CCCCCC21 (centres undefined) | 1.06 h |
| COc1cc(=O)n2c(c1C(=O)Nc1ccc(Cl)cc1)CCCC2 | > 2 h |
| CN1c2cc(C(=O)Nc3ccc(Cl)c(F)c3)ccc2C(=O)N2CCCCC21 (centres undefined) | 0.524 h |
| CN1c2cc(C(=O)Nc3ccc(Cl)cc3)ccc2C(=O)N2CCCCC21 (centres undefined) | 1.39 h |
| FC(F)(F)c1ccc2nc([C@H]3CCN(Cc4ccc(Cl)cc4)C3)[nH]c2c1 | 0.945 h |
| COc1cccc(C(=O)NCC2CCCN(Cc3ccc(Cl)cc3)C2)c1OC (centres undefined) | > 2 h |
| Cc1noc(-c2nc(-c3ccc(Cl)cc3)no2)n1 | 0.26 h |
| CCN1c2cc(C(=O)Nc3ccc(Cl)c(F)c3)ccc2C(=O)N2CCCCC21 (centres undefined) | 0.412 h |
| CN(Cc1cccnc1)c1nc2c(c(=O)[nH]1)CCN(Cc1ccc(Cl)cc1)CC2 | 1.24 h |
